Entries after “also recorded” stand apart in the source; their conditions may differ. Values belong to the compound of their own block, whether it stands above or below them.
What was measured:
[1] = test system: Arabidopsis thaliana roots; conditions: for root elongation / root hair growth: 8-day-old seedlings, 1 μM MBZ or 10 nM IAA plates
[2] = test system: Ethylene Response Factor1 (ERF1); assay: Expression of ethylene response marker gene ERF1; format: in vivo, Arabidopsis thaliana; conditions: root tissue, 2 hours, 10 μM MBZ or ACC (50 μM per legend)
[3] = test system: EIN3; assay: 35S-EIN3-GFP protein level in ein3eil1 background; format: in vivo, Arabidopsis thaliana; conditions: 2 hours, 10 μM MBZ or 50 μM ACC
Description: (§1) LaserMicroscopy. A Zeiss 710 confocal microscope with 20×, 40×, and 63× objectives were used to detect GFP and propidium iodide (PI) fluorescence. A Keyence BZ-X810 microscope with a 20× objective was used to detect bright field images and GFP fluorescence in FIG. 3B, FIG. 8B right panel, FIG. 9C, FIG. 9F.

[4] = test system: root cells of etiolated seedlings; assay: Root cell size by confocal microscopy (PI staining); format: in vivo, Arabidopsis thaliana; conditions: 4-day-old etiolated seedlings, 2.5 μM MBZ or 10 μM ACC
Description: as §1

[5] = test system: etiolated Arabidopsis seedlings; assay: Triple response of etiolated seedlings; format: in vivo, Arabidopsis thaliana; conditions: for triple response in etr1-3: 4-days-old etiolated etr1-3 seedlings, 2.5 μM MBZ or 10 μM ACC
[6] = test system: etiolated Col-0 seedlings; assay: Measurement of ethylene production by GC-MS; format: in vivo, Arabidopsis thaliana; conditions: 3-days-old etiolated Col-0 seedlings, 10 μM
Procedure: Measurement of ethylene production. […] These vials were incubated at 22° C. for 3 days under dark environment. 500-1000 μL sample of the headspace gas was sampled with an autosampler (TriPlus RSH, Thermo Scientific) and injected into a gas chromatograph (Trace 1310 GC, Thermo Scientific) that was equipped with a HP-PLOTQ column ([…], 320 μm, 20 μm) and a mass spectrometer (TSQ8000 Evo MS, Thermo Scientific), scanning from 25-27.5 m/z. Separations were carried out at 35° C. using He as the carrier gas. The area of the ethylene peak (RT: 4 min) was integrated using Thermo Xcalibur Qual Browser. A calibration curve was generated by varying the injection volume (100 μL, 250 μL, 500 μL, and 1000 μL) of a 10 ppm ethylene standard (in nitrogen), and sample results are expressed as concentrations calculated from linear regression of calibration samples.

[7] = test system: microtubules (TUB6-GFP); assay: Microtubule orientation in root tips of TUB6-GFP seedlings; format: in vivo, Arabidopsis thaliana; conditions: 1 μM IAA or 50 μM MBZ
Description: as §1

[8] = test system: Arabidopsis lateral roots; assay: Time lapse of lateral root angle phenotyping after plate transfer; format: in vivo, Arabidopsis thaliana
Procedure: Time lapse of lateral root angle phenotyping. […] Root phenotype images of these plates were acquired by CCD vertical scanners (EPSON Perfection V600 Photo, Seiko Epson CO., Nagano, Japan) every 10 mins over a period of 24 hours using the tool described (Ogura et al., 2022). Root length and lateral root angles were measured using Fiji.

[9] = test system: IAA1, IAA29, GH3.2, GH3.3, and MAKR4; assay: Expression of marker genes of auxin signaling; format: in vivo, Arabidopsis thaliana; conditions: 10 μM MBZ, 2 h
[10] = test system: DR5-GFP V2; assay: DR5-GFP V2 auxin response reporter in roots; format: in vivo, Arabidopsis thaliana
Description: as §1

[11] = test system: ARR5; assay: Expression of immediate-early cytokinin target gene ARR5; format: in vivo, Arabidopsis thaliana; conditions: 10 μM MBZ, 3 h, 6 h or 12 hours
[12] = test system: Arabidopsis roots; assay: mRNA-seq of roots, differential expression and GO analysis; format: in vivo, Arabidopsis thaliana
Procedure: mRNA-seq analysis. 14 d old seedlings on DMSO plates were transferred to 12 MS liquid plates with DMSO or 10 μM mebedazole treatment for 4 h, root tissues were collected for RNA extraction and RNA-seq.
Read alignment and generation of counts. The TAIR10 genome file and annotation file were obtained from the Arabidopsis Information resource web site (arabidopsis.org). The An aligner, called the Splice Transcripts Alignments to Reference (STAR) version 2.7.0a^44, was used to align short reads in the FASTQ files. In order to use STAR, a STAR index was built using the following parameters:
Then, short reads in the FASTQ files were aligned and gene counts were obtained using the following STAR command:
A custom R script was used to combine counts per gene from count data produced from STAR cross all samples.
Differential expression analysis. Differential expression of genes between treatments and control was determined using the R package, edgeR (version 3.36.0) (Robinson et al., 2010). The CPM (counts per million) function from edgeR was used to normalize the counts and differentially expressed genes (DEGs) were identified using glmLRT function from edgeR.
Analysis of published Ethylene RNA-Seq. The fastq-dump utility from the Short Read Archive (SRA) Toolkit (v2.6.3) (github.com/ncbi/sra-tools) was used to download transcriptome libraries (SRA accession IDs: SRR648276, SRR648275, SRR648274, SRR648300, SRR648299, and SRR648298) from SRA database (ncbi.nlm.nih.gov/sra) (Leinonen et al., 2011). The color space sequencing data were converted to base-space sequencing data using Perl script ‘csfq2fq.pl’ (gist.github.com/pcantalupo/9c30709fe802c96ea2b3). The converted FASTQ files were aligned and analyzed using above methods.
Statistical analysis. A two-sided Student's t-test was used for comparisons of two conditions. The comparison of meristem length, mature cell length, root length, GSA between multiple treatments or genotypes was performed by One-way ANOVA and post hoc Tukey testing. Detailed information was prepared in figure legends. Statistical significance of overlap between DEGs from MBZ treatment and ethylene treatment was assessed by hypergeometric distribution test. Hypergeometric test function in R was used to calculate statistical significance: • $ phyper(q−1, m, n-m, k, lower.tail=FALSE, log.p=FALSE) • q=the number of genes in common between two sets • m=the number of genes in Set 1; • n=the total number of genes in RNA-Seq counts table (33,602) • k=the number of genes in Set 2

[13] = target: T1, MAPK4 (Arabidopsis thaliana, UniProt Q39024); assay: In vitro kinase assay with non-radioactive ATP-γ-S; format: biochemical; conditions: 0, 10, 100 μM MBZ
T1 construct: 6xHis (N); made in house; host or cells: E. coli Rosetta 2 (DE3)pLysS
T1 sequence (Q39024 1-376): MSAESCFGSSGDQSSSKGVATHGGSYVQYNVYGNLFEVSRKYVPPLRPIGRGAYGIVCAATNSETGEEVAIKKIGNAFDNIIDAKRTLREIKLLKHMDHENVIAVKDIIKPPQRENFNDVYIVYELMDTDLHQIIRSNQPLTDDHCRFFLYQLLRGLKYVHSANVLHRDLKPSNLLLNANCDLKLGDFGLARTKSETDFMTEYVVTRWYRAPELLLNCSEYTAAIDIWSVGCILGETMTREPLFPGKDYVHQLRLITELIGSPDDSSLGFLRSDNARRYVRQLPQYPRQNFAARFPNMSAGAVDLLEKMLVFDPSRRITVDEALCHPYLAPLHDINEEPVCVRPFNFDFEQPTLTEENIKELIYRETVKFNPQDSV
Procedure: Protein purification. The CTR1 Kinase domain (540 aa-821 aa) (CTR1-KD) and MAPK4 were cloned into a modified pET28a with 6× His tag at their N-terminal. Proteins were expressed in Rosetta™ 2 (DE3)pLysS Competent Cells. Bacteria was cultured in 30 mL LB media containing 50 μg/mL kanamycin overnight at 37° C., 200 rpm. The culture was transferred into 1 L LB media with kanamycin. After the culture reached to 0.7 to 0.9 at OD 600 nm, 0.4 mM isopropylthiop-D-galactoside (IPTG) was added, and the culture was grown for 22 h at 20° C., 200 rpm. Cells were harvested by centrifugation at 4° C. for 10 mins at 3,000×g. The pellet was washed with 0.9% NaCl and resuspended in 40 mL lysis buffer (50 mM pH 7.5 Tris-HCl, 1 mM EDTA, 100 mM NaCl, 20% glycerol, EDTA-free protease inhibitor cocktail, 10 mM imidazole). […] Protein concentration was measured by their absorbance at 280 nm.
In vitro kinase assay with non-radioactive ATP-7-S. The in vitro kinase assay followed the previous published method ([…]). […] The phosphorylation status of MBP, CTR1-KD and MPK4 were analyzed by western blot using Recombinant Anti-Thiophosphate ester antibody (Abcam, Cat. Ab92570, 1:5000) followed by Goat Anti-Rabbit IgG (H+L)-HRP Conjugate antibody (Bio-Rad, Cat. No. 170-6515, 1:5000). The MBP, CTR1-KD and MPK4 proteins loading amounts were measured by Coomassie Blue R250 staining.

[14] = target: hsMAPK14 (Homo sapiens, UniProt Q16539); conditions: mammalian systems, Ariey-Bonnet et al., 2020; cited from earlier work
Sequence of hsMAPK14 (Q16539 whole entry): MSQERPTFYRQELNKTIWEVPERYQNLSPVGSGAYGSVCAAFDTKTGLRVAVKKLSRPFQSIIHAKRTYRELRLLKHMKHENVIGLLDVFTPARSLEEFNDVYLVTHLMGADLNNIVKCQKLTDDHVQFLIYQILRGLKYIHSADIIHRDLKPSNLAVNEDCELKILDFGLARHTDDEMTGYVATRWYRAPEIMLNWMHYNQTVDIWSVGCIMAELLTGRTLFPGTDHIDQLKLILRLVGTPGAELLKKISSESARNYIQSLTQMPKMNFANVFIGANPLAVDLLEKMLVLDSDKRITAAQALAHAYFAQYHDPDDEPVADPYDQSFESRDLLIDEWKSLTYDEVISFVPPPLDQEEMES

[15] = test system: Arabidopsis roots; conditions: 4 hours of ethylene treatment; cited from earlier work
[16] = 1 μM MBZ, one week after germination

SMILES: NC1(C(=O)O)CC1 [ACC, 1-aminocy-clopropane-1-carboxylic acid]
effect on root angle ([1]; ACC at certain concentrations (0.1-10 μM range)): weak but distinct effect | transcript level of ERF [2]: strongly induced | 35S-EIN3-GFP protein level [3]: dramatically induced | mature cell size [4]: reduced | triple response in etr1-3 [5]: completely insensitive | ethylene production [6]: dramatically induced

SMILES: O=C(O)Cc1c[nH]c2ccccc12 [IAA]
root elongation [1]: inhibited | root hair growth [1]: enhanced | orientation of tubulin in roots within 1 h [7]: significantly changed

effect on MAPK4 kinase activity compared to CTR1 [13]: much less pronounced | kinase activity of MPK4 ([13]; concentration dependent): inhibited
SMILES: COC(=O)Nc1nc2ccc(C(=O)c3ccccc3)cc2[nH]1 [MBZ, Mebendazole]
decreased root length (in average reduced by) [1, 16]: 37% | root hair initiation and elongation [1, 16]: increased | root length of ein2-5 and ein3eil1 mutant plants ([1]; 1.2 μM MBZ): clearly not affected | root phenotype of Col-0 ([1]; 1.2 μM MBZ): short roots and increased root hair development | response of etr1-1 and etr1-3 ethylene receptor mutants (root length, GSA) ([1]; 1.2 μM MBZ plates): strongly responded | lateral root angles of ctr1-1, ein2-5, and ein3eil1 plants ([1]; 2 to 3-weeks-old plants, 1.3 μM MBZ): insensitive | root elongation [1]: inhibited | root hair growth [1]: enhanced | lateral root angle ([1]; MBZ treatment): distinctly increased | plant growth and development ([1]; in vivo): strongly inhibited plant growth and development | lateral root gravitropic setpoint angle (GSA) ([1]; two-week-old seedlings grown on 1 μM MBZ plates): approx. 70 ° | transcript level of ERF [2]: strongly induced | 35S-EIN3-GFP protein level [3]: dramatically induced | reversibility of effect on lateral root angles ([8]; 1 μM MBZ, removal): fully reversible | time to change of GSA in time-lapse experiment ([8]; MBZ treatment): one to four | time until lateral root tips grow at a distinctly steeper angle upon removal from MBZ ([8]; transfer from 1 μM MBZ back to control conditions, 5 lateral root tips): four | time until lateral root tips grow at a more horizontal angle ([8]; transfer from DMSO to 1 μM MBZ medium, five lateral root tips): three | expression of marker genes of auxin signaling [9]: did not show any significant change | DR5-GFP V2 expression within 3 hours compared to mock ([10]; 10 μM MBZ, 3 h): no increased | DR5-GFP V2 expression, long-term treatment ([10]; 7-day-old roots grown on 1 μM MBZ plates): induced | mature cell size [4]: reduced | triple response phenotype ([5]; 3-day-old etiolated seedlings, 10 μM MBZ): significant triple response phenotype | triple response in etr1-3 [5]: showed the typical triple response phenotype | triple response in ethylene insensitive mutants ein2-5 and ein3eil1 ([5]; MBZ (2.5 μM), etiolated seedlings): abolished; also recorded: didn't show a triple response | concentration sufficient to induce the triple response phenotype ([5]; dark environment): 2.5 µM | ARR5 expression [11]: did not respond | GO enrichment of ethylene-activated signaling pathway (GO:0009873) ([12]; 10 μM MBZ, 4 hours): 10.83 fold enrichment | GO enrichment of negative regulation of ethylene-activated signaling pathway (GO:0010105) ([12]; 10 μM MBZ, 4 hours): 21.03 fold enrichment | number of differentially expressed genes (DEGs) ([12]; 4 hours of MBZ treatment): 1335 genes | DEGs overlapping with DEGs of 4 hours ethylene treatment ([12]; 4 hours of MBZ treatment vs published ethylene data): 306 genes | common DEGs retaining directionality of expression change ([12]; MBZ vs ethylene, 4 h): More than 90% | activity on hsMAPK14 [14]: inhibitor | ethylene production [6]: not detected

SMILES: C=C [ethylene]
number of DEGs upon ethylene treatment (published data) [15]: 1397 genes

From patent publication US20250049032A1, “ETHYLENE SIGNALING ACTIVATOR MODULATES ROOT SYSTEM ARCHITECTURE” (Salk Institute for Biological Studies, priority 2021, published 2025)
